Consider 1 compound from patent US20140079634A1, “LABELED PE2I FORMULATION AND METHOD” (priority 2012, published 2014).

Holding throughout (format): in vivo
Experiment [1] deals with T1, dopamine transporter (Homo sapiens, UniProt Q01959).
T1 construct: from tissue; host or cells: striatum in vivo (SPECT imaging of subjects)
The experiment in a line: SPECT imaging of the dopamine transporter, Lewy Body Dementia subjects. The following applies: six Lewy Body Dementia individuals, greater than 1 mCi intravenous. How it is done:
SPECT imaging of the dopamine transporter with ^123I-PE2I is conducted on six subjects previously diagnosed with Lewy Body Dementia, and on control individuals without a diagnosis of Lewy Body Dementia. For each individual tested, greater than 1 mCi of ^123I-PE2I is administered by intravenous injection at the onset of imaging. Images of the striatum are collected and analyzed by a radiologist to determine striatal binding potentials. In general, the methodology used for the SPECT imaging is the same as the methods described in Fischman et al., 1998, Synapse 29:125 41, which is incorporated herein by reference.

The target of experiment [2] is T1, dopamine transporter. The experiment in a line: SPECT imaging of the dopamine transporter, ADHD subjects. The following applies: six ADHD individuals, greater than 1 mCi intravenous. How it is done: SPECT imaging of the dopamine transporter with 1231-PE2I is conducted on six subjects previously diagnosed with ADHD, and on control individuals without a diagnosis of ADHD. For each individual tested, greater than 1 mCi of 1231-PE2I is administered by intravenous injection at the onset of imaging. Images of the striatum are collected and analyzed by a radiologist to determine striatal binding potentials. In general, the methodology used for the SPECT imaging is the same as the methods described in Fischman et al., 1998, Synapse 29:125-41, which is incorporated herein by reference.

Experiment [3] has as its target dopamine transporter (Rattus norvegicus, UniProt P23977). The experiment in a line: SPECT scan, transporter occupancy and binding parameters (Parkinson's Diagnosis). How it is done: A SPECT scan is performed. Strong evidence of different nonspecific binding in the striatal region, compared with the reference region is found, leading to bias in the estimate of dopaminergic denervation (range, 36%-94% severity) was found. […] The 6-hydroxydopamine lesion affected B(max) (control, 402±94 pmol/mL; lesioned, 117±120 pmol/mL; P=0.003) but not K app d (control, 331±63 pmol/mL; lesioned, 362±119 pmol/mL; P=0.63).

T1 sequence (Q01959 whole entry): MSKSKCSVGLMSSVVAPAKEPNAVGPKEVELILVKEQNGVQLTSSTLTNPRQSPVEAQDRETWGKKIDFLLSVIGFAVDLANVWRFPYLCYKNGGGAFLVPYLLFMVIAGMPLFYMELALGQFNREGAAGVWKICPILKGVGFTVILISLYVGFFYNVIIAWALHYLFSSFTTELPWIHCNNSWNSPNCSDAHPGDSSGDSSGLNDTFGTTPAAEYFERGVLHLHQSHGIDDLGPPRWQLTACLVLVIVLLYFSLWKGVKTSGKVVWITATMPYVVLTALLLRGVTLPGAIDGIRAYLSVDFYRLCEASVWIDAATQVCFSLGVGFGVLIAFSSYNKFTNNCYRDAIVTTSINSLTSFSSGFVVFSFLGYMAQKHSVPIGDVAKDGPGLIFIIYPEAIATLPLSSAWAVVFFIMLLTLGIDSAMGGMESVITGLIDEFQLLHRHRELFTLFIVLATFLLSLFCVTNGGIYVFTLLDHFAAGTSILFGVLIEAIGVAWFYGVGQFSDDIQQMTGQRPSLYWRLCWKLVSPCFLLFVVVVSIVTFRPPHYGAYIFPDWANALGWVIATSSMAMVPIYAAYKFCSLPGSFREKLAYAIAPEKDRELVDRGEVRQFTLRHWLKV
Sequence of dopamine transporter (Rattus norvegicus, UniProt P23977) (P23977 whole entry): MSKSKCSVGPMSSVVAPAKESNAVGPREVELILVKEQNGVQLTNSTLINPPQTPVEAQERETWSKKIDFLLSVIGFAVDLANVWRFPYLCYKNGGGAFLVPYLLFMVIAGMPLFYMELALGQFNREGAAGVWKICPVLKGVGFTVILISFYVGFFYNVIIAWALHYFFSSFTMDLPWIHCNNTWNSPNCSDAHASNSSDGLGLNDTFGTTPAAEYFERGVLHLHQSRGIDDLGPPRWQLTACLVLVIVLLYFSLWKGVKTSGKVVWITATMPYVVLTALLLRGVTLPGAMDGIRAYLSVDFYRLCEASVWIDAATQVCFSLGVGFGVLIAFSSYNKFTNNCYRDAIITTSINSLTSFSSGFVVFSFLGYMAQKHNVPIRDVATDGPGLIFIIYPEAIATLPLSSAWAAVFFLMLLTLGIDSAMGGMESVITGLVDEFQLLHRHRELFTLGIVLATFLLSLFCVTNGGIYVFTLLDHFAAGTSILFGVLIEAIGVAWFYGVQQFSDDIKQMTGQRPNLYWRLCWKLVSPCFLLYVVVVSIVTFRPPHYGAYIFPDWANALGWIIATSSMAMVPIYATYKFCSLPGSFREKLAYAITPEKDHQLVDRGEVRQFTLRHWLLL

Turning to `COC(=O)[C@@H]1C2CC[C@H](C[C@@H]1c1ccc(C)cc1)N2C/C=C/I` [[^123I]-PE2I, [^123I] N-(3-iodoprop-2E-enyl)-2β-carbomethoxy-3β-(4-methylphenyl)-nortropane], the “striatal binding potential versus expected levels for aged matched normal individuals” value at dopamine transporter [1] and on dopamine transporter [2] was “reduced binding potential” throughout. The “B(max)” value on dopamine transporter [3] (6-hydroxydopamine lesioned) turned out to be 117 ± 120 pmol/mL; on dopamine transporter [3] (control), 402 ± 94 pmol/mL.
